Measurements: patent publication US20090023773A1, “COMPOSITIONS AND METHODS FOR MODULATING GATED ION CHANNELS” (PainCeptor Pharma Corporation, priority 2007, published 2009)

Biological target: T1, hASIC2a/3 steady state (window) current (Homo sapiens, UniProt Q16515+Q9UHC3)
T1 construct: expressed in transfected cells; host or cells: Xenopus laevis oocytes, cRNA microinjection, 1:1 mass ratio
T1 sequence (Q16515 1-512): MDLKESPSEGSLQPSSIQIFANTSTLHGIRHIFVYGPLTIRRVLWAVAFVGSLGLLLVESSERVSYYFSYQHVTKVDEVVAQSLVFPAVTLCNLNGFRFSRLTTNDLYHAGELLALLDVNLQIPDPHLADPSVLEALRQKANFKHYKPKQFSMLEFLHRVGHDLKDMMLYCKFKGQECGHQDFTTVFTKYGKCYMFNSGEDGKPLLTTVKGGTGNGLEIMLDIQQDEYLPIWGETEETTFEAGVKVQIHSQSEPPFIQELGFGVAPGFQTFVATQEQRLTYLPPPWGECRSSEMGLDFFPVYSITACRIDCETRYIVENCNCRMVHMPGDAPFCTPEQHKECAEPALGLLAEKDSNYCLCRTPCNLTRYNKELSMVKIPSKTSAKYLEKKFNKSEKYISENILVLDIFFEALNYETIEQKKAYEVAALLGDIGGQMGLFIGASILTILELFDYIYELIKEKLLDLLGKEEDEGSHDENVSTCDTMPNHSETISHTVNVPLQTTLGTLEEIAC
T1 sequence (Q9UHC3 1-531): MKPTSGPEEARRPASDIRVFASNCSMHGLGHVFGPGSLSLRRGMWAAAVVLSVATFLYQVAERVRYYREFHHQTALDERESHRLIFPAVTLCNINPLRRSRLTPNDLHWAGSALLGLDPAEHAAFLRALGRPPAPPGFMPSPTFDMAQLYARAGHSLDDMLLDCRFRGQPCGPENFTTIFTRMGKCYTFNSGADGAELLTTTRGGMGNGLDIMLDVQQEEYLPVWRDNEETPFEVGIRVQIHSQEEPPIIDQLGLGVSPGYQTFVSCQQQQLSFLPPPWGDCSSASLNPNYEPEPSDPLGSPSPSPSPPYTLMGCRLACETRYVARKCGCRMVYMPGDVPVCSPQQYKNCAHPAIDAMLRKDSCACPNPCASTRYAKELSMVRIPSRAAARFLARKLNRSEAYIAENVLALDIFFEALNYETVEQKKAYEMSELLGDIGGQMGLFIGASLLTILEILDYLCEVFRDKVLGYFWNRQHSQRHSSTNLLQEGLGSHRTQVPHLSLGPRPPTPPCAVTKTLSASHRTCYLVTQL
Assay: ASIC2a/3 assay, automated two-electrode voltage clamp in oocytes microinjected with hASIC2a and hASIC3 (Example 2)
Assay type: cell-based
Settings: 50 μM, perfusion at pH 6.5; FIG. 8
Description: The ASIC2a/3 assay involves methods and procedures commonly in use and have been extensively described in the literature.
Briefly, a mature female frog is placed on its back after anesthesia, 20 min in 0.1% (w/v) Tricaine (Sigma), and incision is made on the lower abdomen through the skin, muscle and into the peritoneum. Lobes of ovaries are pulled out with forceps, cut and placed in a solution of Ca^2+-free Barth's with 1% (w/v) collagenase Type I (Sigma) added, for 90 minutes. The dissociated eggs are then washed with complete Barth's, supplementd with […] Gentamycin.
Plasmids containing cDNA for ASIC2a+ASIC3 are linearized and used for cRNA synthesis. The synthesis is done according to the protocol insert of the synthesis kit (e.g. Message Machine, Ambion). The final resuspension of the cRNA is made to provide a concentration of 1 μg/μL. The cDNA's for hASIC2a and hASIC3 are mixed with a 1:1 mass ratio and injected at […] per oocyte. Micro-injected oocytes start expressing hASIC2a3 specific current after 24 h.
The oocytes micro-injected with hASIC2a and hASIC3 cRNA's are placed in the recording chambers of the automated rig and then impaled with the voltage and current micro-electrodes. […] The voltage and current for each oocyte is recorded in one pass during both applications for later analysis. […]

Structure (SMILES): Cc1ccc(-c2nc(Nc3ccc(C(=O)O)cc3)c3cc(Cl)ccc3n2)cc1 [Compound 124]
- inhibition of the ASIC 2a/3 current: specific inhibition
